These results are taken from patent US20150005390A1, “METHOD FOR TREATING INFLAMMATORY DISORDER” (National Defense Medical Center, priority 2013, published 2015).

The subject of experiment [1] is IL-1β precursor expression in J774A.1 cells. Nature of the experiment: IL-1β precursor expression, Western blot in LPS-activated macrophages. The experiment is classed as cell-based, mouse. Conditions: J774A.1 cells incubated with creosol 30 minutes, then LPS 6 hours; FIG. 2E. The procedure: (§1) Whole cell lysates were separated by SDS-PAGE and electrotransferred to a PVDF (polyvinylidene fluoride) membrane. The membranes were incubated in a blocking solution—5% nonfat milk in phosphate buffered saline with 0.1% Tween 20—at room temperature for 1 hour. Each membrane was incubated with a specific primary antibody, at room temperature, for 2 hours. After washing the membrane three times in PBS with 0.1% Tween 20, it was incubated with an HRP-conjugated secondary antibody directed against the primary antibody. The membrane was developed by an enhanced chemiluminescence Western blot detection system.
(§2) J774A.1 cells (1×10^6/ml) were primed with LPS for 5.5 hours, followed by treatment with creosol for 30 minutes, and then stimulated with ATP (5 mM) for an additional 30 minutes. […] Data is expressed as the mean±SE from three separate experiments (wherein *p<0.05). In FIG. 2B, the expression of caspase-1 (p45) and cleaved caspase-1 (p10) were analyzed by Western blot. […] Data is expressed as the mean±SE from three separate experiments (wherein *p<0.05). The expressions of caspase-1 (p45) and cleaved caspase-1 (p10) were analyzed by Western blot, and the result of one of the three separate experiments is shown in FIG. 2D. […] The expressions of NLRP3 inflammasomes and IL-1β precursor were analyzed by Western blot. […]

The test system of experiment [2] is TNF-α expression in RAW 264.7 macrophages. Nature of the experiment: TNF-α ELISA in LPS-activated macrophages. It is filed as cell-based, murine. Conditions: RAW 264.7 macrophages pretreated with creosol 30 minutes, then LPS 1 μg/ml 24 hours; FIG. 1C. The protocol:
(§3) Cells were seeded in 6-well plates at a density of 5×10^5 cells/ml, and then incubated with or without LPS (1 μug/ml) in the absence or presence of tested samples for 24 hours. The effects of the tested samples on TNF-α, IL-6 and IL-1β production were measured by ELISA according to the manufacturer's protocol. Briefly, 50 μl of biotinylated antibody reagent and 50 μl of supernatant were added to an anti-mouse TNF-α, IL-6 and IL-1β precoated stripwell plate, and incubated at room temperature for 2 hours. After washing the plate three times with the washing buffer, 100 μl of diluted streptavidin-HRP (horseradish peroxidase) concentrate was added to each well and the plate was incubated at room temperature for 30 minutes. The washing process was repeated; then, 100 μl of a premixed tetramethylbenzidine substrate solution was added to each well and developed at room temperature, in the dark, for 30 minutes. Following the addition of 100 μl of stop solution to each well to stop the reaction, the absorbance of the plate was measured by a microplate reader at a 450 nm wavelength. As shown in FIG. 1B and FIG. 1C, RAW 264.7 macrophages (5×10^5/ml) were pretreated with creosol for 30 minutes, followed by stimulating with LPS (1 μg/ml) for 24 hours. IL-6 and TNF-α concentration in culture medium was assayed by ELISA.
In general terms: An ELISA detects its analyte on a solid surface through an enzyme-linked reagent.

Experiment [3] deals with ovariectomy-induced bone loss. Conditions: through inhibiting osteoclastogenesis; cited from earlier work.
Experiment [4] concerns IL-1β secretion in J774A.1 cells. Description: IL-1β secretion ELISA in ATP stimulated LPS-primed macrophages (NLRP3 inflammasome activation). The experiment is classed as cell-based, mouse. The protocol: Cells were seeded in 6-well plates at a density of 5×10^5 cells/ml, and then incubated with or without LPS (1 μug/ml) in the absence or presence of tested samples for 24 hours. The effects of the tested samples on TNF-α, IL-6 and IL-1β production were measured by ELISA according to the manufacturer's protocol. Briefly, 50 μl of biotinylated antibody reagent and 50 μl of supernatant were added to an anti-mouse TNF-α, IL-6 and IL-1β precoated stripwell plate, and incubated at room temperature for 2 hours. […] Following the addition of 100 μl of stop solution to each well to stop the reaction, the absorbance of the plate was measured by a microplate reader at a 450 nm wavelength.
as §2

Experiment [5] has as its system NLRP3 expression in J774A.1 cells. Description: NLRP3 expression, Western blot in LPS-activated macrophages. Conditions: J774A.1 cells incubated with creosol 30 minutes, then LPS 6 hours; FIG. 2E. The experiment is classed as cell-based, mouse. The protocol: as §1, §2
In general terms: In western blotting, separated proteins are transferred to a membrane and probed.

Experiment [6] deals with NO production in RAW 264.7 macrophages. Description: NO inhibitory assay (Griess reaction) in LPS-activated macrophages. The experiment is classed as cell-based, murine. Conditions: RAW 264.7 macrophages pretreated with creosol 30 minutes, then LPS 1 μg/ml 24 hours; FIG. 1A. The protocol: RAW 264.7 cells were seeded in 24-well plates at a density of 5×10^5 cells/ml, and then incubated with or without LPS (1 μg/ml) in the absence or presence of tested samples for 24 hours. The effects of creosol on NO production were measured indirectly by the analysis of nitrite levels, using the Griess reaction. The effects of creosol on the expression of inflammatory mediators were analyzed. In the present invention, RAW 264.7 macrophages (5×10^5/ml) were pretreated with creosol for 30 minutes, followed by stimulation with LPS (1 μg/ml) for 24 hours. NO concentration in culture medium was assayed by the Griess reaction.
(In general: Nitrite, measured by Griess reagent, commonly stands in for NO production.)

Experiment [7] deals with caspase-1 activation in J774A.1 cells. Description: Caspase-1 activation, Western blot of p10 subunit in ATP stimulated LPS-primed macrophages. It is filed as cell-based, mouse. Conditions: then ATP 30 minutes. The protocol:
as §1, §2

Experiment [8] deals with cultured rat hippocampal neurons. Conditions: cultured rat hippocampal neurons exposed to N-methyl-D-aspartate or H2O2; cited from earlier work.
Experiment [9] has as its system IL-6 expression in RAW 264.7 macrophages. Description: IL-6 ELISA in LPS-activated macrophages. The experiment is classed as cell-based, murine. Conditions: RAW 264.7 macrophages pretreated with creosol 30 minutes, then LPS 1 μg/ml 24 hours; FIG. 1B. The protocol:
as §3

The structures appear in SMILES notation.

With `COc1cc(C)ccc1O` [creosol, 2-methoxy-4-methylphenol], the IL-1β precursor expression result in experiment [1] is recorded as “significantly inhibited the IL-1[…] precursor expression”. In experiment [2], the TNF-α expression result is given as “not able to inhibit TNF-α expression”. The “prevention of ovariectomy-induced bone loss” value in experiment [3] is “able to prevent ovariectomy-induced bone loss”. Further, the IL-1β secretion entry in experiment [4] (J774A.1 cells incubated with creosol 30 minutes before LPS-priming, washed out, then ATP 30 minutes, FIG. 2C) was “inhibited IL-1β secretion in a dose-dependent fashion”; in experiment [4] (LPS-primed J774A.1 cells incubated with creosol 30 minutes, then ATP 5 mM 30 minutes, FIG. 2A), “inhibited IL-1β secretion slightly”. Moreover, the NLRP3 expression entry in [5] is reported as “inhibited NLRP3 expression slightly”. Moreover, in experiment [6], the “expression of NO” value is recorded as “inhibited in creosol-pretreated cells in a dose-dependent manner”. The caspase-1 activation result was “inhibited by creosol in a dose-dependent fashion” in experiment [7] (J774A.1 cells incubated with creosol 30 minutes before LPS-priming, washed out, FIG. 2D) and “inhibited caspase-1 activation slightly” in experiment [7] (LPS-primed J774A.1 cells incubated with creosol 30 minutes, FIG. 2B). Moreover, the “prevention of cell death of neurons” value in experiment [8] is reported as “able to prevent the cell death”. Besides, the IL-6 expression result in [9] is “able to inhibit IL-6 expression in a dose-dependent manner”.
